Laboratory results taken from US12162872B2, “Cycloalkylurea derivative” (Sumitomo Pharma Co., Ltd., priority 2019, dated 2024).

Target: T1, Human orexin receptor type 2 (Homo sapiens, UniProt O43614)
T1 construct: expressed in transfected cells; host or cells: CHO cells (transient expression)
T1 sequence (O43614 1-444): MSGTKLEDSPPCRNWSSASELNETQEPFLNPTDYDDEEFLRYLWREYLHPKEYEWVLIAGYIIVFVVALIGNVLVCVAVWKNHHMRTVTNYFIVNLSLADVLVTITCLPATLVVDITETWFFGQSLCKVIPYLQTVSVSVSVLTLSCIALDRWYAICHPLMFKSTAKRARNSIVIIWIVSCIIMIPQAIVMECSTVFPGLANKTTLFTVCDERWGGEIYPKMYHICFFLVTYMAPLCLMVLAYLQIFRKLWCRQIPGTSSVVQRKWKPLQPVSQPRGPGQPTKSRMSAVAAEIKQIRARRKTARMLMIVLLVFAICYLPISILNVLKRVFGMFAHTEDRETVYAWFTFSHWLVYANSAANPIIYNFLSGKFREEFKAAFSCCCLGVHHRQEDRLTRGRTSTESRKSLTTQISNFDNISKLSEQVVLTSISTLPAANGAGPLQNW
Assay: Test 1: Evaluation of agonist activity for orexin receptor type 2 (aequorin luminescence, intracellular calcium mobilization in CHO cells)
Assay type: cell-based
Conditions: relative percentage of luminescence for the luminescence (100%) of Orexin A (100 pM); CHO cells transiently expressing human orexin receptor type 2 and apoaequorin; Orexin A Lot. 641114
Description: Test 1: Evaluation of Agonist Activity for Orexin Receptor Type 2
Human orexin receptor type 2 and apoaequorin were transiently expressed in CHO cells, and the agonist activity was evaluated based on intracellular calcium mobilization with ligand stimulation. The CHO cells transiently-expressed human orexin receptor type 2 and apoaequorin were seeded on a 384-well plate by 2,000 cells/well, and then incubated for 16-22 hours. After the plate was returned to room temperature, Coelenterazine hcp (final concentration: 1 μM) was added to the plate, and the plate was allowed to stand at room temperature for 2 hours. And then, Orexin A (PEPTIDE INSTITUTE, INC., Lot. 641114) or each test compound was added to the plate, and the luminescence of the cells was measured with FDSS7000 (Hamamatsu Photonics K.K.), wherein Orexin A and each test compound were dissolved in DMSO (final concentration: 0.1%), and diluted with a buffer (Hanks, 20 mM HEPES, 0.1% BSA). The agonist activity of each test compound for orexin receptor type 2 was calculated as relative percentage of luminescence for the luminescence (100%) of Orexin A (100 pM).

Row | Structure (SMILES) | agonist activity (%)
1 | CC(C)N1CCN([C@H]2CCCC(F)(F)[C@@H]2NC(=O)N2CCC(C)(c3nsc(C4CC4)n3)CC2)CC1 (racemic) [Example 31, rac-4-(5-cyclopropyl-1,2,4-thiadiazol-3-yl)-N-{(1R,6S)-2,2-difluoro-6-[4-(propan-2-yl)piperazin-1-yl]cyclohexyl}-4-methylpiperidine-1-carboxamide] | 168
2 | CC(C)N1CCN([C@H]2CCCC(F)(F)[C@@H]2NC(=O)N2CCC(c3ccccn3)CC2)CC1 (racemic) [Example 32, rac-N-{(1R,6S)-2,2-difluoro-6-[4-(propan-2-yl)piperazin-1-yl]cyclohexyl}-4-(pyridin-2-yl)piperidine-1-carboxamide] | 176
3 | CC(C)N1CCN([C@H]2CCCC(F)(F)[C@@H]2NC(=O)N2CCC3(CCCC3)CC2)CC1 (racemic) [Example 33, rac-N-{(1R,6S)-2,2-difluoro-6-[4-(propan-2-yl)piperazin-1-yl]cyclohexyl}-8-azaspiro[4.5]decane-8-carboxamide] | 123
4 | CC(C)N1CCN([C@H]2CCCC(F)(F)[C@@H]2NC(=O)N2CCC(C)(c3nnc(C4CC4)s3)CC2)CC1 (racemic) [Example 34, rac-4-(5-cyclopropyl-1,3,4-thiadiazol-2-yl)-N-{(1R,6S)-2,2-difluoro-6-[4-(propan-2-yl)piperazin-1-yl]cyclohexyl}-4-methylpiperidine-1-carboxamide] | 183
5 | CC(C)N1CCN([C@H]2CCCC(F)(F)[C@@H]2NC(=O)N2CCC(C3CCCCC3)CC2)CC1 (racemic) [Example 35, rac-4-cyclohexyl-N-{(1R,6S)-2,2-difluoro-6-[4-(propan-2-yl)piperazin-1-yl]cyclohexyl}piperidine-1-carboxamide] | 165
6 | CC(C)N1CCN([C@H]2CCCC(F)(F)[C@@H]2NC(=O)N2CCC(c3ncccn3)CC2)CC1 (racemic) [Example 36, rac-N-{(1R,6S)-2,2-difluoro-6-[4-(propan-2-yl)piperazin-1-yl]cyclohexyl}-4-(pyrimidin-2-yl)piperidine-1-carboxamide] | 114
7 | CC(C)N1CCN([C@H]2CCCC(F)(F)[C@@H]2NC(=O)N2CCC(O)(c3ccccn3)CC2)CC1 (racemic) [Example 37, rac-N-{(1R,6S)-2,2-difluoro-6-[4-(propan-2-yl)piperazin-1-yl]cyclohexyl}-4-hydroxy-4-(pyridin-2-yl)piperidine-1-carboxamide] | 45
8 | CC(C)N1CCN([C@H]2CCCC(F)(F)[C@@H]2NC(=O)N2CCC(c3ccccc3)CC2)CC1 (racemic) [Example 38, rac-N-{(1R,6S)-2,2-difluoro-6-[4-(propan-2-yl)piperazin-1-yl]cyclohexyl}-4-phenylpiperidine-1-carboxamide] | 142
9 | CC(C)N1CCN([C@H]2CCCC(F)(F)[C@@H]2NC(=O)N2CCC(C)(c3ccccc3)CC2)CC1 (racemic) [Example 39, rac-N-{(1R,6S)-2,2-difluoro-6-[4-(propan-2-yl)piperazin-1-yl]cyclohexyl}-4-methyl-4-phenylpiperidine-1-carboxamide] | 157
10 | CC(C)N1CCN([C@H]2CCCC(F)(F)[C@@H]2NC(=O)N2CCC(O)(c3ccc(Cl)cc3)CC2)CC1 (racemic) [Example 41, rac-4-(4-chlorophenyl)-N-{(1R,6S)-2,2-difluoro-6-[4-(propan-2-yl)piperazin-1-yl]cyclohexyl}-4-hydroxypiperidine-1-carboxamide] | 23
11 | CC(C)N1CCN([C@H]2CCCC(F)(F)[C@@H]2NC(=O)N2CCC(C)(Oc3ccccn3)CC2)CC1 (racemic) [Example 42, rac-N-{(1R,6S)-2,2-difluoro-6-[4-(propan-2-yl)piperazin-1-yl]cyclohexyl}-4-methyl-4-[(pyridin-2-yl)oxy]piperidine-1-carboxamide] | 141
12 | COc1nc(C2(C)CCN(C(=O)N[C@@H]3[C@@H](N4CCN(C(C)C)CC4)CCCC3(F)F)CC2)ns1 (racemic) [Example 45, rac-N-{(1R,6S)-2,2-difluoro-6-[4-(propan-2-yl)piperazin-1-yl]cyclohexyl}-4-(5-methoxy-1,2,4-thiadiazol-3-yl)-4-methylpiperidine-1-carboxamide] | 150
13 | CC(C)N1CCN([C@H]2CCCC(F)(F)[C@@H]2NC(=O)N2CCC(F)(c3ccccn3)CC2)CC1 (racemic) [Example 46, rac-N-{(1R,6S)-2,2-difluoro-6-[4-(propan-2-yl)piperazin-1-yl]cyclohexyl}-4-fluoro-4-(pyridin-2-yl)piperidine-1-carboxamide] | 136
14 | CC(C)N1CCN([C@H]2CCCC(F)(F)[C@@H]2NC(=O)N2CCC(C)(c3csc(C4CC4)n3)CC2)CC1 (racemic) [Example 47, rac-4-(2-cyclopropyl-1,3-thiazol-4-yl)-N-{(1R,6S)-2,2-difluoro-6-[4-(propan-2-yl)piperazin-1-yl]cyclohexyl}-4-methylpiperidine-1-carboxamide] | 163
15 | CC(C)N1CCN([C@H]2CCCC(F)(F)[C@@H]2NC(=O)N2CCC(C)(c3ncc(C4CC4)s3)CC2)CC1 (racemic) [Example 48, rac-4-(5-cyclopropyl-1,3-thiazol-2-yl)-N-{(1R,6S)-2,2-difluoro-6-[4-(propan-2-yl)piperazin-1-yl]cyclohexyl}-4-methylpiperidine-1-carboxamide] | 156
16 | Cc1ccc(C2CCN(C(=O)N[C@@H]3[C@@H](N4CCN(C(C)C)CC4)CCCC3(F)F)CC2)nc1 (racemic) [Example 50, rac-N-{(1R,6S)-2,2-difluoro-6-[4-(propan-2-yl)piperazin-1-yl]cyclohexyl}-4-(5-methylpyridin-2-yl)piperidine-1-carboxamide] | 154
17 | Cc1cnc(C2CCN(C(=O)N[C@@H]3[C@@H](N4CCN(C(C)C)CC4)CCCC3(F)F)CC2)c(F)c1 (racemic) [Example 51, rac-N-{(1R,6S)-2,2-difluoro-6-[4-(propan-2-yl)piperazin-1-yl]cyclohexyl}-4-(3-fluoro-5-methylpyridin-2-yl)piperidine-1-carboxamide] | 149
18 | CC(C)N1CCN([C@H]2CCCC(F)(F)[C@@H]2NC(=O)N2CCC(c3ccc(F)cn3)CC2)CC1 (racemic) [Example 52, rac-N-{(1R,6S)-2,2-difluoro-6-[4-(propan-2-yl)piperazin-1-yl]cyclohexyl}-4-(5-fluoropyridin-2-yl)piperidine-1-carboxamide] | 113
19 | COc1ccc(C2CCN(C(=O)N[C@@H]3[C@@H](N4CCN(C(C)C)CC4)CCCC3(F)F)CC2)nc1 (racemic) [Example 53, rac-N-{(1R,6S)-2,2-difluoro-6-[4-(propan-2-yl)piperazin-1-yl]cyclohexyl}-4-(5-methoxypyridin-2-yl)piperidine-1-carboxamide] | 143
20 | Cc1cnc(C2CCN(C(=O)N[C@@H]3[C@@H](N4CCN(C(C)C)CC4)CCCC3(F)F)CC2)nc1 (racemic) [Example 54, rac-N-{(1R,6S)-2,2-difluoro-6-[4-(propan-2-yl)piperazin-1-yl]cyclohexyl}-4-(5-methylpyrimidin-2-yl)piperidine-1-carboxamide] | 146
